From patent US9540348B2, “Imidazole-1-yl pyrimidine derivatives, or pharmacutically acceptable salt thereof, and pharmaceutic composition comprising the same as an active ingredient” (Industry-University Cooperation Foundation Hanyang …, priority 2015, dated 2017)
“Also recorded” adds a separate entry of the source.

What was measured:
[1] = tested on: U937 human leukemic monocyte lymphoma cell line; assay: Antiproliferative activity to U937 human leukemic monocyte lymphoma cell line; format: cell-based
Protocol: (§1) The antiproliferative activity of the compounds of Examples to A375P human melanoma cell line and U937 human leukemic monocyte lymphoma cell line are evaluated and listed in the following Table 1.

cRAF1 = cRAF1 (Homo sapiens, UniProt P04049); assay: Enzymatic activity (IC50) to kinases; format: biochemical; settings: read-out: IC50 (Unit: nM) cRAF1
SYK = SYK (Homo sapiens, UniProt P43405); assay: Kinase panel screening; format: biochemical; settings: 10 μM concentration; read-out: Inhibition Rate (Unit: %) SYK
Protocol: (§2) To Compound 10c of Example 23, kinase panel screening was carried out to 32 kinds of kinases in 10 μM concentration and the results are listed in the following Table 2.

LCK = LCK (Homo sapiens, UniProt P06239); assay: Kinase panel screening; format: biochemical; settings: 10 μM concentration; read-out: Inhibition Rate (Unit: %) LCK
Protocol: as §2

JNK3 = JNK3 (Homo sapiens, UniProt P53779); assay: Kinase panel screening; format: biochemical; settings: 10 μM concentration; read-out: Inhibition Rate (Unit: %) JNK3
Protocol: as §2

PLK1 = PLK1 (Homo sapiens, UniProt P53350); assay: Kinase panel screening; format: biochemical; settings: 10 μM concentration; read-out: Inhibition Rate (Unit: %) PLK1
Protocol: as §2

JAK3 = JAK3 (Homo sapiens, UniProt P52333); assay: Kinase panel screening; format: biochemical; settings: 10 μM concentration; read-out: Inhibition Rate (Unit: %) JAK3
Protocol: as §2

GSK3b = GSK3b (Homo sapiens, UniProt P49841); assay: Kinase panel screening; format: biochemical; settings: 10 μM concentration; read-out: Inhibition Rate (Unit: %) GSK3b
GSK3b, sequence (P49841 whole entry, species assumed): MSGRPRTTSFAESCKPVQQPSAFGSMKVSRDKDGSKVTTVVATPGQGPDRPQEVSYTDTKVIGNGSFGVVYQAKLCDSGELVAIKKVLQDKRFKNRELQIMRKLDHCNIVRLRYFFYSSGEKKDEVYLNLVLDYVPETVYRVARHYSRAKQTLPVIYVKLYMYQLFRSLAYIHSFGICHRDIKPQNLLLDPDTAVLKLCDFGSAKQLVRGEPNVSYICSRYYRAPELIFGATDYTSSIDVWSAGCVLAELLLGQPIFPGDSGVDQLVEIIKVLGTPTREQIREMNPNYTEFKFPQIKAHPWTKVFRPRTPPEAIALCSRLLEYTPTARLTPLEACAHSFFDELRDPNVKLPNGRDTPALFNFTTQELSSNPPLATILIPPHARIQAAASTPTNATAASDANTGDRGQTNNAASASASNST
Protocol: as §2

FLT3 = FLT3 (Homo sapiens, UniProt P36888); assay: Kinase panel screening; format: biochemical; settings: 10 μM concentration; read-out: Inhibition Rate (Unit: %) FLT3
Protocol: as §2

CDK1/cyclin B = CDK1/cyclin B (Homo sapiens, UniProt P06493); assay: Kinase panel screening; format: biochemical; settings: 10 μM concentration; read-out: Inhibition Rate (Unit: %) CDK1/cyclin B
Protocol: as §2

MEK1 = MEK1 (Homo sapiens, UniProt Q02750); assay: Kinase panel screening; format: biochemical; settings: 10 μM concentration; read-out: Inhibition Rate (Unit: %) MEK1
MEK1, sequence (Q02750 whole entry, species assumed): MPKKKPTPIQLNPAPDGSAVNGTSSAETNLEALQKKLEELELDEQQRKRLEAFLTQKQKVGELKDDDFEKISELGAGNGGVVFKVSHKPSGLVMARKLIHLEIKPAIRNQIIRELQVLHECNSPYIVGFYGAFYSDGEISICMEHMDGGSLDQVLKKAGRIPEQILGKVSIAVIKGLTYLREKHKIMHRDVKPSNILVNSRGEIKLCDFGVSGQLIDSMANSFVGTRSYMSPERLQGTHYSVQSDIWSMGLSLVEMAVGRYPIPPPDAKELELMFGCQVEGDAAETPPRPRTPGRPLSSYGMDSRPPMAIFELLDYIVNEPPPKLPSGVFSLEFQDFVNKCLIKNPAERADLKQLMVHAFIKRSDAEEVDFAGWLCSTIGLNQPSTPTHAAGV
Protocol: as §2

FGFR3 = FGFR3 (Homo sapiens, UniProt P22607); assay: Kinase panel screening; format: biochemical; settings: 10 μM concentration; read-out: Inhibition Rate (Unit: %) FGFR3
Protocol: as §2

Aurora A = Aurora A (Homo sapiens, UniProt O14965); assay: Kinase panel screening; format: biochemical; settings: 10 μM concentration; read-out: Inhibition Rate (Unit: %) Aurora A
Protocol: as §2

AKT1 = AKT1 (Homo sapiens, UniProt P31749); assay: Kinase panel screening; format: biochemical; settings: 10 μM concentration; read-out: Inhibition Rate (Unit: %) AKT1
Protocol: as §2

mTOR/FRAP1 = mTOR/FRAP1 (Homo sapiens, UniProt P42345); assay: Kinase panel screening; format: biochemical; settings: 10 μM concentration; read-out: Inhibition Rate (Unit: %) mTOR/FRAP1
Protocol: as §2

P38a/MAPK14 [2] = biological target: T1, P38a/MAPK14 (Homo sapiens, UniProt Q16539); assay: Kinase panel screening; format: biochemical; settings: 10 μM concentration; read-out: Inhibition Rate (Unit: %) P38a/MAPK14
T1 sequence (Q16539 whole entry): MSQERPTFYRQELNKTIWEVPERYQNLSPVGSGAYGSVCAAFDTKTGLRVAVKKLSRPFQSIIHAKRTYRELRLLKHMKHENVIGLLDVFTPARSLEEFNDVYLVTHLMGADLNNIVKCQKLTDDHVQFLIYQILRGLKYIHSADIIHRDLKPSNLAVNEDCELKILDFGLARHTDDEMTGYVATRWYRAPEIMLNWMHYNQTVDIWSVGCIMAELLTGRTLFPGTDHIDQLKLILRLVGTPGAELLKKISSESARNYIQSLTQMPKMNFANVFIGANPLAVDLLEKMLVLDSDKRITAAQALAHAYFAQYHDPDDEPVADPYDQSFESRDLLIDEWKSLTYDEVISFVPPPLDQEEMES
Protocol: as §2

LYN = LYN (Homo sapiens, UniProt P07948); assay: Kinase panel screening; format: biochemical; settings: 10 μM concentration; read-out: Inhibition Rate (Unit: %) LYN
Protocol: as §2

BRAF (V600E) [3] = biological target: T2, BRAF (V600E) (Homo sapiens, UniProt P15056, V600E); assay: Kinase panel screening; format: biochemical; settings: 10 μM concentration
T2 sequence (P15056 whole entry V600E): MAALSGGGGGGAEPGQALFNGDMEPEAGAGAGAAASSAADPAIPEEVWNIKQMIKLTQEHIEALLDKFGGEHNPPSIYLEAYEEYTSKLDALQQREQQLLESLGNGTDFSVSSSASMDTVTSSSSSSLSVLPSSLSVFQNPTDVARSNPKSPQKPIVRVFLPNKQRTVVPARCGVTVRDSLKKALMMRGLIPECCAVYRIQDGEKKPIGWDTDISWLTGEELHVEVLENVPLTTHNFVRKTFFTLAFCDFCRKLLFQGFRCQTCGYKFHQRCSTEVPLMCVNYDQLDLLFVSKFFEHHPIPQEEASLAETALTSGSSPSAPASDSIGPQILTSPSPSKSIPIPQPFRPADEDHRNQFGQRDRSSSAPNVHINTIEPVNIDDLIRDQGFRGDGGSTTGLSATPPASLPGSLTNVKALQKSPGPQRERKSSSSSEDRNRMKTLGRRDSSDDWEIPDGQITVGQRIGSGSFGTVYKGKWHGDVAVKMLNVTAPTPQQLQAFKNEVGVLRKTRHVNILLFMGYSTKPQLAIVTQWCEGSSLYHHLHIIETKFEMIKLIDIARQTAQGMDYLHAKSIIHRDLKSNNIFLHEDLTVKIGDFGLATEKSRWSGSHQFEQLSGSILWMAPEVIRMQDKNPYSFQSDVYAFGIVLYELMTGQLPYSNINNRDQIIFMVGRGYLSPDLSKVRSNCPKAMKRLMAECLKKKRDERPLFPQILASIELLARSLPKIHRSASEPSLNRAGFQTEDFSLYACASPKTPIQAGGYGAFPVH
Protocol: as §2

ERK1 = ERK1 (Homo sapiens, UniProt P27361); assay: Kinase panel screening; format: biochemical; settings: 10 μM concentration; read-out: Inhibition Rate (Unit: %) ERK1
Protocol: as §2

RAF1 = RAF1 (Homo sapiens, UniProt P04049); assay: Kinase panel screening; format: biochemical; settings: 10 μM concentration
RAF1, sequence (P04049 whole entry): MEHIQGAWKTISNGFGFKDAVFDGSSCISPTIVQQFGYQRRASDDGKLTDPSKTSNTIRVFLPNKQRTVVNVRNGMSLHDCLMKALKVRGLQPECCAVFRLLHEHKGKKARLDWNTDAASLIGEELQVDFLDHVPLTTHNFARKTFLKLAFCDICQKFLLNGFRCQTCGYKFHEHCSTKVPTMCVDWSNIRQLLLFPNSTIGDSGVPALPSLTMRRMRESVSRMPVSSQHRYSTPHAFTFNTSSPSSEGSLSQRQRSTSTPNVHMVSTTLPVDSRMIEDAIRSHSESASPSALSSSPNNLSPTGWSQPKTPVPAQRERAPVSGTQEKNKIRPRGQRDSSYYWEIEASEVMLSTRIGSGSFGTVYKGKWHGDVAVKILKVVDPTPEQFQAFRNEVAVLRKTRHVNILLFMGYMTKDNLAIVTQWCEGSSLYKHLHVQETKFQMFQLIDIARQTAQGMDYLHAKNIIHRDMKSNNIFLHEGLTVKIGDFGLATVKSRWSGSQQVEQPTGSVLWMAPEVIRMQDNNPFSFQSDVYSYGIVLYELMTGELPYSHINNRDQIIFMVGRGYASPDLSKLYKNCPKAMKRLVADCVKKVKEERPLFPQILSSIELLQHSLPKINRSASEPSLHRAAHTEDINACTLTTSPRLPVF
Protocol: as §2

ALK = ALK (Homo sapiens, UniProt Q9UM73); assay: Kinase panel screening; format: biochemical; settings: 10 μM concentration; read-out: Inhibition Rate (Unit: %) ALK
Protocol: as §2

FMS = FMS (Homo sapiens, UniProt P07333); assay: Kinase panel screening; format: biochemical; settings: 10 μM concentration; read-out: Inhibition Rate (Unit: %) FMS
Protocol: as §2

ROS/ROS1 = ROS/ROS1 (Homo sapiens, UniProt P08922); assay: Kinase panel screening; format: biochemical; settings: 10 μM concentration; read-out: Inhibition Rate (Unit: %) ROS/ROS1
Protocol: as §2

EGFR = EGFR (Homo sapiens, UniProt P00533); assay: Kinase panel screening; format: biochemical; settings: 10 μM concentration; read-out: Inhibition Rate (Unit: %) EGFR
EGFR, sequence (P00533 25-1210, species assumed): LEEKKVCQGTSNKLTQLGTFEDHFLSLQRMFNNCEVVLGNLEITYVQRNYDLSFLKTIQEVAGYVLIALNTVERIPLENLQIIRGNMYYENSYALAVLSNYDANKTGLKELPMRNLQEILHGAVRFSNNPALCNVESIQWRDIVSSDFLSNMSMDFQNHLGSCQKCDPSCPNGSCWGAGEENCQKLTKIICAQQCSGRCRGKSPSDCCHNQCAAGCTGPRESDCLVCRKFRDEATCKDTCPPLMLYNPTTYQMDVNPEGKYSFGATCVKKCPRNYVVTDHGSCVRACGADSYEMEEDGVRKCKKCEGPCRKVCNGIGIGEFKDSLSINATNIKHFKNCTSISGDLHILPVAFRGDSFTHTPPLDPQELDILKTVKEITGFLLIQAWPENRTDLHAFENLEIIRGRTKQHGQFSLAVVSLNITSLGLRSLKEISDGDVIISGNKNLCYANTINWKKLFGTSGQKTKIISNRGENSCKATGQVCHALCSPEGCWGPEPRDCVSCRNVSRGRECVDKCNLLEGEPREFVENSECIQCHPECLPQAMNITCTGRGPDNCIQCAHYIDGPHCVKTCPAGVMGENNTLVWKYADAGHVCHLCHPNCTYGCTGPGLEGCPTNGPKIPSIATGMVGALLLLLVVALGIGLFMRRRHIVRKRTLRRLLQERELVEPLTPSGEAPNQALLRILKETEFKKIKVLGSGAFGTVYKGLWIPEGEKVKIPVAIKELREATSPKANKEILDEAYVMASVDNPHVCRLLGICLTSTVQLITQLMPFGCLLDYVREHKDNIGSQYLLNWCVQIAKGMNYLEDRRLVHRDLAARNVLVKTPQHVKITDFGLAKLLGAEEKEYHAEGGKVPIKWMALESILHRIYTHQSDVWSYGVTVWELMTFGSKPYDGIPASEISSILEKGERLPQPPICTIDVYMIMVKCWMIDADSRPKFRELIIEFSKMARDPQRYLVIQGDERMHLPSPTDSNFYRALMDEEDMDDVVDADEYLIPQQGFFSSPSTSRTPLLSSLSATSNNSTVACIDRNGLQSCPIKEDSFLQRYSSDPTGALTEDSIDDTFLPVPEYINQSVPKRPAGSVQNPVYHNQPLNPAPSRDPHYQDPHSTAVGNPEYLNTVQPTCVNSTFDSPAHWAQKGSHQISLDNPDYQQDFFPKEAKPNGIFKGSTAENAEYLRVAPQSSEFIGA
Protocol: as §2

IGF1R = IGF1R (Homo sapiens, UniProt P08069); assay: Kinase panel screening; format: biochemical; settings: 10 μM concentration; read-out: Inhibition Rate (Unit: %) IGF1R
Protocol: as §2

PKA = assay: Kinase panel screening; format: biochemical; settings: 10 μM concentration
Protocol: as §2

c-Kit = c-Kit (Homo sapiens, UniProt P10721); assay: Kinase panel screening; format: biochemical; settings: 10 μM concentration; read-out: Inhibition Rate (Unit: %) c-Kit
c-Kit, sequence (P10721 26-976): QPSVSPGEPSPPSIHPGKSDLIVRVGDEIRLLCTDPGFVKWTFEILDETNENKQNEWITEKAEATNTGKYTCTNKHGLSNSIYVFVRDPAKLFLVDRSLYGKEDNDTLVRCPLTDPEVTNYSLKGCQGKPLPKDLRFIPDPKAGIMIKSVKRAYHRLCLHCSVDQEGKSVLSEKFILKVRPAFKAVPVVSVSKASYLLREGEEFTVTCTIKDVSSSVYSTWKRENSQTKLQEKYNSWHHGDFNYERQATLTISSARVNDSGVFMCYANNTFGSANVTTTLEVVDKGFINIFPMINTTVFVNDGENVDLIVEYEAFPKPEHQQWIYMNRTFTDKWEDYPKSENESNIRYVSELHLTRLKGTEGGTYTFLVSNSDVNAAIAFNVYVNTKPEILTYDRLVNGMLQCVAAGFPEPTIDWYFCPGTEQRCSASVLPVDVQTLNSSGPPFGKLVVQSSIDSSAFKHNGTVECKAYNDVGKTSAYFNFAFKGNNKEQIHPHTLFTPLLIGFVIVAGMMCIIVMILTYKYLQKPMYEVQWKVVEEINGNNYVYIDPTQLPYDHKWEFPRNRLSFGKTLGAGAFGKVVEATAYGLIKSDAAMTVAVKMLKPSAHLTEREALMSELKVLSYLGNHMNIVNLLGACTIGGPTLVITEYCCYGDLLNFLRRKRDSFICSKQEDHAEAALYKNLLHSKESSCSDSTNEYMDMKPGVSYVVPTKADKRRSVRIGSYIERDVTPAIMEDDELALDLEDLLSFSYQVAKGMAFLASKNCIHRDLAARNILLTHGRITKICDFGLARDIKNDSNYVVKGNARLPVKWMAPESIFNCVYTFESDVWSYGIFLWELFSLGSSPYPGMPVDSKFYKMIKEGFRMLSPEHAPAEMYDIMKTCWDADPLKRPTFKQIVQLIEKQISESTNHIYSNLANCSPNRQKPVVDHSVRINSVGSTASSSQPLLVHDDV
Protocol: as §2

P38a/MAPK14 [4] = biological target: T1, P38a/MAPK14; assay: Enzymatic activity (IC50) to kinases; format: biochemical; settings: read-out: IC50 (Unit: nM) P38a/MAPK14
[5] = tested on: A375P human melanoma cell line; assay: Antiproliferative activity to A375P human melanoma cell line; format: cell-based
Protocol: as §1

BRAF (V600E) [6] = biological target: T2, BRAF (V600E); assay: Enzymatic activity (IC50) to kinases; format: biochemical; settings: read-out: IC50 (Unit: nM) BRAF (V600E)

`C[C@H](O)CNc1nccc(-n2ccnc2Cc2cccc(NC(=O)Nc3ccc(C(F)(F)F)c(Cl)c3)c2)n1` [Example 23, (S)-1-(3-chloro-4-(trifluoromethyl)phenyl)-3-(3-((1-(2-((2-hydroxypropyl)amino)pyrimidin-4-yl)-1H-imidazol-2-yl)methyl)phenyl)urea] was tested, and the “potency against U937, in words” value ([1]; U937 cell line, comparison with Sorafenib) was “large potencies; also recorded: better potencies than Sorafenib”, the GI50 ([1]; U-937, U937 human leukemic monocyte lymphoma cell line, read-out: U937 (GI50, Unit: μM)) was 2.73 µM and the IC50 (cRAF1) was 8.79 nM. It also gave an inhibition at 10 µM (SYK) of 0%, an inhibition at 10 µM (LCK) of 5.8% and an inhibition at 10 µM (JNK3) of 0%. It also gave an inhibition at 10 µM (PLK1) of 9.9%, an inhibition at 10 µM (JAK3) of 0% and an inhibition at 10 µM (GSK3b) of 34.5%. For the same molecule, the inhibition at 10 µM (FLT3) was 68.4%, the inhibition at 10 µM (CDK1/cyclin B) was 34.8% and the inhibition at 10 µM (MEK1) was 0%. It also gave an inhibition at 10 µM (FGFR3) of 3.5%, an inhibition at 10 µM (Aurora A) of 17.6% and an inhibition at 10 µM (AKT1) of 12.9%. It also gave an inhibition at 10 µM (mTOR/FRAP1) of 0%, an inhibition at 10 µM (P38a/MAPK14 [2]) of 94.3% and an inhibition at 10 µM (LYN) of 8.1%. For the same molecule, the “Inhibition Rate (Unit: %) BRAF (V600E)” value (BRAF (V600E) [3]; 10 µM) was 96.1%, the inhibition at 10 µM (BRAF (V600E) [3]; read-out: Inhibition Rate (Unit: %) BRAF (V600E)) was 99% and the inhibition at 10 µM (ERK1) was 0%. The “Inhibition Rate (Unit: %) RAF1” value (RAF1; 10 µM) was 98.7%, the inhibition at 10 µM (RAF1; read-out: Inhibition Rate (Unit: %) RAF1) was 99% and the inhibition at 10 µM (ALK) was 4.9%. It also gave an inhibition at 10 µM (FMS) of 33.6%, an inhibition at 10 µM (ROS/ROS1) of 0.73% and an inhibition at 10 µM (EGFR) of 0%. For the same molecule, the inhibition at 10 µM (IGF1R) was 0%, the “Inhibition Rate (Unit: %) PKA” value (PKA) was 0% and the inhibition at 10 µM (c-Kit) was 63.8%. For the same molecule, the IC50 (P38a/MAPK14 [4]) was 571 nM, the “potency against A375P, in words” value ([5]; A375P cell line, comparison with Sorafenib) was “large potencies; also recorded: better potencies than Sorafenib” and the GI50 ([5]; A375P human melanoma cell line, read-out: A375P (GI50, Unit: μM)) was 1.82 µM. For the same molecule, the IC50 (BRAF (V600E) [6]) was 38.3 nM.
